# From ChEMBL document CHEMBL1129324, “Tyrphostins. 5. Potent inhibitors of platelet-derived growth factor receptor tyrosine kinase: structure-activity relationships in quinoxalines, quinolines, and indole tyrphostins” (J Med Chem, 1996)
# Target: Platelet-derived growth factor receptor (Mus musculus, UniProt P05622+P26618)
# Test: Inhibitory activity against platelet-derived growth factor receptor tyrosine kinase in Swiss 3T3 cells
# Type: cell-based
smiles,measurement,value
Cc1nc2ccccc2nc1-c1ccccc1,IC50,> 100 µM
CCOCc1nc2cc(C)c(C)cc2nc1-c1ccccc1,IC50,> 50 µM
Cc1cc2nc(O)c(-c3ccccc3)nc2cc1C,IC50,10 µM
Cc1cc2nc(C)c(-c3ccccc3)nc2cc1C,IC50,> 50 µM
CC(C)CCc1ccc(-c2cnc3ccccc3n2)s1,IC50,> 100 µM
Cc1ccc(-c2cnc3ccccc3n2)s1,IC50,> 100 µM
Cc1cc2ncc(-c3ccc(O)c(O)c3)nc2cc1C,IC50,0.6 µM
COc1cc2nc(-c3ccccc3)cnc2cc1O,IC50,100 µM
Cc1cc2nc(C(=O)O)c(-c3ccccc3)nc2cc1C,IC50,1 µM
c1coc(-c2cnc3ccccc3n2)c1,IC50,> 100 µM
O=c1nc2[nH]c3ccccc3nc-2c(=O)[nH]1 [ALLOXAZINE],IC50,> 50 µM
c1ccc(-c2cnc3ccccc3n2)cc1,IC50,10 µM
CCOC(=O)c1nc2cc(C)c(C)cc2nc1-c1ccccc1,IC50,> 50 µM
Cc1nc2ccccc2nc1C,IC50,> 100 µM
c1ccc2nc(-c3c[nH]c4ccccc34)cnc2c1,IC50,> 100 µM
Cc1cc2nc(CBr)c(-c3ccccc3)nc2cc1C,IC50,> 50 µM
Cc1cc2nc(Cl)c(-c3ccccc3)nc2cc1C,IC50,> 50 µM
O=[N+]([O-])c1ccc2ncc(-c3ccccc3)nc2c1,IC50,25 µM
COc1cc2nc(O)c(-c3ccccc3)nc2cc1OC,IC50,> 50 µM
Cc1cc2nc(-c3ccccn3)c(-c3ccccn3)nc2cc1C,IC50,> 100 µM
CCOP(=O)(Cc1nc2cc(C)c(C)cc2nc1-c1ccccc1)OCC,IC50,> 50 µM
Cc1cc2nc(CN(C)C)c(-c3ccccc3)nc2cc1C,IC50,> 50 µM
c1ccc(-c2nc3ccccc3nc2-c2ccccn2)nc1,IC50,100 µM
c1ccc2nc(-c3ccsc3)cnc2c1,IC50,> 100 µM
Cc1cc2nc(C)c(C)nc2cc1C,IC50,> 50 µM
O=C(c1ccccc1)c1ccc2ncc(-c3ccccc3)nc2c1,IC50,6 µM
c1ccc(-c2ccc(-c3cnc4ccccc4n3)s2)cc1,IC50,> 100 µM
COc1cc2ncc(-c3ccccc3)nc2cc1OC,IC50,0.8 µM
Cc1cc2nc(C=O)c(-c3ccccc3)nc2cc1C,IC50,> 50 µM
Nc1ncnc2ncc(-c3ccccc3)nc12,IC50,> 50 µM
Cc1cc2nc(CSCCOCCSCc3nc4cc(C)c(C)cc4nc3-c3ccccc3)c(-c3ccccc3)nc2cc1C,IC50,> 50 µM
O=C(O)c1ccc2ncc(-c3ccccc3)nc2c1,IC50,> 50 µM
Cc1ccc2ncc(-c3ccccc3)nc2c1,IC50,90 µM
c1ccc(-c2cnc3cc4ccccc4cc3n2)cc1,IC50,0.9 µM
Cc1cc2nc(O)c(-c3ccccc3)[n+]([O-])c2cc1C,IC50,> 50 µM
Cc1cc2nc(CSCCCSCc3nc4cc(C)c(C)cc4nc3-c3ccccc3)c(-c3ccccc3)nc2cc1C,IC50,> 50 µM
c1ccc(-c2cnc3ncccc3n2)cc1,IC50,35 µM
c1coc(-c2nc3ccccc3nc2-c2ccco2)c1,IC50,> 100 µM
Cc1cc2nc3[nH]c4ccc(Br)cc4c3nc2cc1C,IC50,> 50 µM
c1ccc(-c2nc3ccccc3nc2-c2ccccc2)cc1,IC50,> 50 µM
Clc1cc2ncc(-c3ccccc3)nc2cc1Cl,IC50,> 50 µM
Oc1cc2ncc(-c3ccccc3)nc2cc1O,IC50,> 100 µM
Cc1cc2nc(CSCc3nc4cc(C)c(C)cc4nc3-c3ccccc3)c(-c3ccccc3)nc2cc1C,IC50,> 50 µM
Cc1cc2nc(CP(=O)(O)O)c(-c3ccccc3)nc2cc1C,IC50,> 50 µM
c1csc(-c2cnc3ccccc3n2)c1,IC50,100 µM
